Data: patent US6197774A, “Pyrimidine derivative” (Otsuka Pharmaceutical Co., Ltd., priority 1997, dated 2001)

Tests used:
[1] = system: formation of NO in cell strain RAW 264.7; experiment: Activity for inhibiting the formation of NO (LPS-stimulated RAW 264.7 cells, Griess reagent); type: cell-based; conditions: Mus musculus, RAW264.7, 1 × 10^-6 M, LPS 100 ng/ml, 24 hours, read-out: Ratio of formed amount of NO (reference culture medium = 100)
Procedure: [Evaluation test of activity for inhibiting the formation of NO]
Pharmacological tests of pyrimidine derivatives obtained in Examples 1, 12, 14, 19, 22, 24, 29 and 42 used as test compounds were conducted as follows.
Preparation of culture media and method of cell culture were conducted in accordance with those described in J. Biol. Chem., Vol. 269, No. 1, pp. 711-715, (1994), and determination of formed amount of NO was conducted in accordance with the method described in Anal. Biochem., Vol. 126, pp. 131-138, (1982), respectively.
(1) Cell Culture and Inducible Synthesis of NO in the Cells by Stimulation with Lipopolysaccharide (LPS)
Cell strain RAW 264.7 (ATCC) derived from the macrophage of mouse was placed on each one of the wells on a microplate having 24-wells so as to put the cells in an amount of 1×10^5 cells/U (well). The cells were incubated for 24 hours in a phenol red free-RPMI-1640 culture medium (mfd. by GIBCO) to which 10% of fetal bovine serum, 100 U/ml of penicillin (mfd. by Dainippon Pharmaceutical Co., Ltd.) and 100 μg/ml of streptomycin (mfd. by Dainippon Pharmaceutical Co., Ltd.) were added.
Next, the reference culture medium was prepared by adding 2 mM of L-arginine (mfd. by Wako Pure Chemical Industries, Ltd.), 10 μM/ml of tetrahydrobiopterin (mfd. by ALEXIS) and 100 ng/ml of lipopolysaccharide (LPS)(mfd. by Sigma Chemical Co.) to a phenol red free-RPMI-1640 culture medium. While, the reference culture medium without containing LPS was used as the blanc culture medium.
On the other hand, the test culture medium, containing the test compound was prepared by adding 0.2% of the test compounds dissolved in dimethyl sulfoxide (DMSO) to the reference culture medium to adjust the final concentration of the test compound to 1×10^-6 M.
Each one of the blank culture medium, reference culture medium and test culture medium containing the test compound was added, respectively to the well on the micro-plate where the above-mentioned cell strain RAW 264.7 was placed, and was incubated for 24 hours.
(2) Measurement of the Amount of Formed NO
Quantitative measurement of NO cannot be made directly, due to its unstability. Therefore, the amount of NO is measured indirectly, thus by forming nitrous acid ion (hereunder referred to as NO2^-) which is stable product derived from NO by use of Griess reagent [consisting of 1% of sulfanylamide and 0.1% of sulfuric acid solution containing 0.1% N-(1-naphthyl)ethylenediamine dihydrochloride], and measure the amount of NO2^-.
Into the supernatant of each one of the culture media was admixed with the same amount of Griess reagent respectively, and subjected to reaction at room temperature for 10 minutes, then the optical absorbance at 540 nm of the thus reacted culture medium was measured. While, the optical absorbance of sodium nitrite solution diluted with the culture medium was referred to as the standard value, and the amount of NO2^- formed in each one of these incubated culture media was measured. The amounts of NO2^- formed in the reference culture medium and the test culture medium were corrected by using the value of formed amount of NO2^- in the blanc culture medium.
On the basis of that the ratio of amounts of NO2^- formed in the reference culture medium and that of formed in the test culture medium is corresponding to the ratio of amount of NO formed in the reference culture medium and that of formed in the test culture medium. Thus the amount of NO2^- formed in the reference culture medium is referred to as the value of 100, and the value of amount of NO2^- formed in the test culture medium is referred to as amount of NO formed in the test culture medium.

[2] = Toxicity of compound against the cell strain RAW 264.7 (MTT); type: cell-based; conditions: mouse, raw 264.7 cells, 1 × 10^-6 M, read-out: Ratio of optical absorbance
Procedure: [Toxicity test (Toxicity of compound against the cell strain RAW 264.7)]
Test was conducted in accordance with the method as described in J. Immunol. Methods, Vol. 94, pp. 57-68, (1986). Cell strain RAW 264.7 derived from the macrophage of mouse was incubated similarly as in the method of Test Example 1(1). After that, MTT reagent (5 mg/ml) in 1/10 amount of the culture medium was added to the cells, and incubated for 4 hours. The supernatant of culture medium was taken off, then the cells were collected by using 1% SDS solution and the optical absorbance at 570-630 nm of the SDS solution was measured.

contact hypersensitivity = experiment: Contact hypersensitivity model in mouse (atopic dermatitis model); type: in vivo; conditions: po, 30 minutes before causal induction, 24 hours, read-out: Control % (intumescence of the pinna, untreated = 100); for response vs control in vivo at 3 mg/kg: 3 mg/Kg p.o.; for response vs control in vivo at 20 mg/kg: 20 mg/Kg p.o.
Procedure: [Contact hypersensitivity model in mouse (Atopic dermatisis model)]
Test was conducted by referring to the method as described in "HIFU (a Japanese journal of dermatology)" Vol. 35, Supplemental Issue No. 15, pp. 96-106, published on March 1993.
CBA/J strain mice of 6-8 week age were used as the test animals (6-8 mice in one group). The mouse was sensitized by coating 150 μl of 5% of picryl chloride [dissolved in a mixture of acetone with olive oil (1:4)] on the shaved portion of skin in the back of mouse. […] 24 Hours after the causal induction, the effect for inhibiting contact hypersensitivity performed by the test compounds were evaluated by referring to the action for inhibiting intumescence of the pinna as an indication. The test compound was orally administered 30 minutes before the causal induction.
The following compounds were used for the test.
1) Compounds of the Present Invention:
(Dosage: 20 mg/Kg p.o., which is 7-10 times larger amount of dosages for compounds of the present invention)
The value obtained from the sensitization test without administration of the test compound was referred to as 100, and by comparing with the values obtained from the sensitization test with administration of the test compound was referred to "% control" values.

late asthmatic response = experiment: Model experiment of asthma in guinea pigs (inhibition of late asthmatic response); type: in vivo, guinea pig; conditions: control 112 ± 17.8
Procedure: [Model experiment of asthma in guinea pigs. (Inhibition of late asthmatic response)]
Hartley strain female guinea pigs (SLC) having the body weight of about 350 g were used and 50 mg/Kg of cyclophosphamide (mfd. by Sigma Chemical Co.) was injected intraperitoneally. 2 Days after this pretreatment by injection, 1 mg of egg albumin (mfd. by Sigma Chemical Co.) and 100 mg of aluminum hydroxide (Wako Pure Chemical Industries Co., Ltd.) were injected intraperitoneally for sensitization. 3 Weeks after the sensitization, 10 μg of egg albumin and 100 mg of aluminum hydroxide were injected intraperitoneally for booster sensitization. 6 Weeks after the primary sensitization, asthma attach was induced by inhalation and exposure to egg albumin (4 mg/ml) by using a nebulizer (NE-U12: mfd. by Omron Corp.). The asthma reaction was determined by use of a body-plethysmography (using system developed by Uchida lecturer in internal department for respiratory organs at Tsukuba University; air-resist tube, respiratory amplifier and differential pressure transducer (mfd. by Nihon Koden); and osciloscope (mfd. by Iwasaki Tsushin)), so as to determine a […] of specific airway conductance (sGaw) under the condition without anesthesia. The sGaw value just before the administration of test comopound was measured and the value is referred to as 100. Test compound was suspended in 1% HPMC (hydroxymethylpropylcellulose mfd. by Shinetsu Chemical), and was administered orally 30 minutes before the exposure with the antigen. Then, sGaw value was measured in each points until 7 hours after the exposure with the antigen.

SMILES | activity at 1 µM [1] [%] | response vs control in vivo at 20 mg/kg (contact hypersensitivity) [%] | other results
COCc1cc(=O)n2nc(COC)c(-c3ccc(Sc4ccccc4)cc3)c2[nH]1 [Example 42, 2,5-bis(methoxymethyl)-4,7-dihydro-7-oxo-3-(4-phenylthiophenyl)pyrazolo[1,5-a]-pyrimidine] | 55.4 | – | –
O=c1cc(COc2ccccc2)[nH]c2c(-c3ccc(Sc4ccccc4)cc3)cnn12 [Example 12, 4,7-dihydro-7-oxo-5-phenoxymethyl-3-(4-phenylthiophenyl)pyrazolo[1,5-a]pyrimidine] | 67 | – | viability at 1 µM [2]: 103%
CSCc1cc(=O)n2ncc(-c3ccc(Sc4ccccc4)cc3)c2[nH]1 [Example 29, 4,7-dihydro-5-methylthiomethyl-7-oxo-3-(4-phenylthiophenyl)pyrazolo[1,5-a]pyrimidine] | 52.2 | – | viability at 1 µM [2]: 89.7%
O=c1cc(C2CCCO2)[nH]c2c(-c3ccc(Sc4ccccc4)cc3)cnn12 (stereo not drawn) [Example 19, 4,7-dihydro-7-oxo-3-(4-phenylthiophenyl)-5-(tetrahydrofuran-2-yl)pyrazolo[1,5-a]pyrimidine] | 63.1 | – | response vs control in vivo at 3 mg/kg (contact hypersensitivity): 44.7%
CC(C)(C)OCCOCc1cc(=O)n2ncc(-c3ccc(Sc4ccccc4)cc3)c2[nH]1 [Example 15, 5-(2-t-butoxyethoxymethyl)-4,7-dihydro-7-oxo-3-(4-phenylthiophenyl)pyrazolo[1,5-a]pyrimidine] | – | – | response vs control in vivo at 3 mg/kg (contact hypersensitivity): 46.3%
COCCc1cc(=O)n2ncc(-c3ccc(Sc4ccccc4)cc3)c2[nH]1 [Example 22, 4,7-dihydro-5-(2-methoxyethyl)-7-oxo-3-(4-phenylthiophenyl)pyrazolo[1,5-a]pyrimidine] | 60.3 | – | viability at 1 µM [2]: 101%
Oc1ccnc2c(-c3cccc(C(F)(F)F)c3)cnn12 [(5), 7-Hydroxy-3-(3-trifluoromethylphenyl)pyrazolo [1,5-a]pyrimidine] | – | 90.4 | –
Oc1ccnc2c(-c3ccc(Sc4ccccc4)cc3)cnn12 [(8), 7-Hydroxy-3-(4-phenylthiophenyl)pyrazolo[1,5-a]pyrimidine] | – | 100 | AUC (4-7 hours) of sGaw reaction (late asthmatic response; 39 mg/Kg (so in the source) orally 30 minutes before antigen, 3 animals): 127.9 ± 45.4
Oc1cc(CCl)nc2cc(-c3ccc(Sc4ccccc4)cc3)nn12 [(7), 7-Hydroxy-5-chloromethyl-2-(4-phenylthiophenyl)pyrazolo[1,5-a]pyrimidine] | – | 113 | –
COCc1nn2c(O)ccnc2c1-c1ccc(Sc2ccccc2)cc1 [(3), 7-Hydroxy-2-methoxymethyl-3-(4-phenylthiophenyl)pyrazolo[1,5-a]pyrimidine] | – | 104 | –
COc1cc(-c2c(-c3ccccn3)nn3c(O)cc(C)nc23)ccc1Sc1ccccc1 [(6), 7-Hydroxy-5-methyl-3-(3-methoxy-4-phenylthiophenyl)-2-(2-pyridyl)pyrazolo[1,5-a]pyrimidine] | – | 94.7 | –
Oc1cc(C2CC2)nc2c(-c3ccc(Sc4ccccc4)cc3)cnn12 [(1), 7-Hydroxy-5-cyclopropyl-3-(4-phenylthiophenyl)pyrazolo[1,5-a]pyrimidine] | – | 99 | –
Cc1cc(O)n2ncc(-c3ccc(Sc4ccccc4)cc3)c2n1 [(2), 7-Hydroxy-5-methyl-3-(4-phenylthiophenyl)pyrazolo[1,5-a]pyrimidine] | – | 90 | –
C[C@]12C=CC(=O)C=C1CC[C@@H]1[C@@H]2[C@@H](O)C[C@@]2(C)[C@H]1CC[C@]2(O)C(=O)CO [Prednizolone] | – | – | AUC (4-7 hours) of sGaw reaction (late asthmatic response; 30 mg/Kg orally 30 minutes before antigen, 8 animals): 15.6 ± 3.5
COCCOCc1cc(=O)n2ncc(-c3ccc(Sc4ccccc4)cc3)c2[nH]1 [Example 14, 4,7-dihydro-5-(2-methoxyethoxymethyl)-7-oxo-3-(4-phenylthiophenyl)pyrazolo[1,5-a]pyrimidine] | 64.4 | – | viability at 1 µM [2]: 94.2%
COC(OC)c1cc(=O)n2ncc(-c3ccc(Sc4ccccc4)cc3)c2[nH]1 [Example 24, 4,7-dihydro-5-dimethoxymethyl-7-oxo-3-(4-phenylthiophenyl)pyrazolo[1,5-a]pyrimidine] | 67.3 | – | viability at 1 µM [2]: 108%
Oc1cc(CCl)nc2cc(-c3ccccc3)nn12 [(4), 7-Hydroxy-5-chloromethyl-2-phenylpyrazolo[1,5-a]pyrimidine] | – | 103 | –
